Results as given in paper PMC10700596 (Nature Communications, 2023).
Where “and” joins values, the source holds several entries; their conditions need not be identical. Equal values may be shown once. Entries after “also recorded” stand apart in the source; their conditions may differ.

Legend:
CDK7 = CDK7 (Homo sapiens, UniProt P50613); test: biochemical; type: binding; conditions: 10000 nM; read-out: Percent Control
Description: (§1) . […] This panel includes several adverse drug reaction receptors such as the serotonin receptor 5HT2b, M1 and M2 muscarinic receptors and adrenergic receptors. […]. page 7:
(§2) Supplementary Figure 7: Non-GPCR off-target screening for 74. a)-e) Dose-response curves of 74 at […]
(§3) proliferator-activated receptor gamma (PPARγ, Eurofins item G124). Data in a)-e) and g)-i) represent two technical replicates. Source data are provided as a Source Data file.
(§4) (1 picture or pasted object on this page, not shown here)

SRC = SRC (Homo sapiens, UniProt P12931); test: biochemical; type: binding; conditions: 10000 nM; read-out: Percent Control
Description: as §1, §2, §3, §4

PDPK1 = PDPK1 (Homo sapiens, UniProt O15530); test: biochemical; type: binding; conditions: 10000 nM; read-out: Percent Control
PDPK1, sequence (O15530 whole entry): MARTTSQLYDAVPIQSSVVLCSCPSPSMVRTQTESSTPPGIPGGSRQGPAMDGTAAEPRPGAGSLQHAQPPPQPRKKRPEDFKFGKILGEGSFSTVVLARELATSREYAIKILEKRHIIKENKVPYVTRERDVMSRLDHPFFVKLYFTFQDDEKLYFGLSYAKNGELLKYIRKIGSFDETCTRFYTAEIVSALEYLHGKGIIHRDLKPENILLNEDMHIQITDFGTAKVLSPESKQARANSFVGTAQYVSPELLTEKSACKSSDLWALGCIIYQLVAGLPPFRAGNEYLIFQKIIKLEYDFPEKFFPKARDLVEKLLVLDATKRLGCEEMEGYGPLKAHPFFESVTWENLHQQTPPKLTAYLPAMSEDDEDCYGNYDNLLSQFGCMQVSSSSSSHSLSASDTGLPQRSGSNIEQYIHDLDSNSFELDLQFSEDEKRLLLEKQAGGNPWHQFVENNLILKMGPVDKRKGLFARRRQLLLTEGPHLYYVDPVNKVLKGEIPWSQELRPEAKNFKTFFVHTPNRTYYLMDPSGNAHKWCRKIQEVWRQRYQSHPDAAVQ
Description: as §1, §2, §3, §4

[1] = target: ABL1(E255K)-phosphorylated (Homo sapiens, UniProt P00519, E255K); test: biochemical; type: binding; conditions: 10000 nM; read-out: Percent Control
Description: as §1, §2, §3, §4

BRAF = BRAF (Homo sapiens, UniProt P15056); test: biochemical; type: binding; conditions: 10000 nM; read-out: Percent Control
Description: as §1, §2, §3, §4

IKK-alpha = IKK-alpha (Homo sapiens, UniProt O15111); test: biochemical; type: binding; conditions: 10000 nM; read-out: Percent Control
IKK-alpha, sequence (O15111 whole entry): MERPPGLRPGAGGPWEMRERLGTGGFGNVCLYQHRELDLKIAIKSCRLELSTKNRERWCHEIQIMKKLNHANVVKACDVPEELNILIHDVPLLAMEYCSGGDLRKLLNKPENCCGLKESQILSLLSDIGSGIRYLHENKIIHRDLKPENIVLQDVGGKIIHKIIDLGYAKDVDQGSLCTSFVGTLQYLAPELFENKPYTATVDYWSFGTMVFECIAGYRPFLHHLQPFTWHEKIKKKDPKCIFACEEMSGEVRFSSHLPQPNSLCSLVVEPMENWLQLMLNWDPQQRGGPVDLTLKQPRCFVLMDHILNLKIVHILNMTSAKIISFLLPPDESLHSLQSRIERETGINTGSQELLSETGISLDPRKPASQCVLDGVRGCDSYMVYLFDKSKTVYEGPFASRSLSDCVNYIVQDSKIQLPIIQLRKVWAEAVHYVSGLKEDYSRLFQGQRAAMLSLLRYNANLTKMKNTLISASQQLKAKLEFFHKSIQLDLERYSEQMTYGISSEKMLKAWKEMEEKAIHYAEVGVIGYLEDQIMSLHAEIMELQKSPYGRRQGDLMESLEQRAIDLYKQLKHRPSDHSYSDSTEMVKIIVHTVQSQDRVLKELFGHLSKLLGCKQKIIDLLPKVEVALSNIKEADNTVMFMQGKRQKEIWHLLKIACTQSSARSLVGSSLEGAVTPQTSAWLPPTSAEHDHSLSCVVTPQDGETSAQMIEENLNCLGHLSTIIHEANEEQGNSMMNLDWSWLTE
Description: as §1, §2, §3, §4

SRPK3 = SRPK3 (Homo sapiens, UniProt Q9UPE1); test: biochemical; type: binding; conditions: 10000 nM; read-out: Percent Control
Description: as §1, §2, §3, §4

PIM1 = PIM1 (Homo sapiens, UniProt P11309); test: biochemical; type: binding; conditions: 10000 nM; read-out: Percent Control
PIM1, sequence (P11309 whole entry): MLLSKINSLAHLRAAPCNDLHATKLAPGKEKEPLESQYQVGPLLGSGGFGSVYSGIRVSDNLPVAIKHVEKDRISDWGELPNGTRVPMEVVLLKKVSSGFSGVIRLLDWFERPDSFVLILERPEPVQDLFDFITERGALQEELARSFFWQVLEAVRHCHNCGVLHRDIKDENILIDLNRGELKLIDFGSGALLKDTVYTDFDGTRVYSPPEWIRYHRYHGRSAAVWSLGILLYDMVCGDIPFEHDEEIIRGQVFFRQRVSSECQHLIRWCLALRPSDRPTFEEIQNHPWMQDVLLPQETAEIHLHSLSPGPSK
Description: as §1, §2, §3, §4

TRKA = TRKA (Homo sapiens, UniProt P04629); test: biochemical; type: binding; conditions: 10000 nM; read-out: Percent Control
Description: as §1, §2, §3, §4

ZAP70 = ZAP70 (Homo sapiens, UniProt P43403); test: biochemical; type: binding; conditions: 10000 nM; read-out: Percent Control
Description: as §1, §2, §3, §4

BTK = BTK (Homo sapiens, UniProt Q06187); test: biochemical; type: binding; conditions: 10000 nM; read-out: Percent Control
Description: as §1, §2, §3, §4

ULK2 = ULK2 (Homo sapiens, UniProt Q8IYT8); test: biochemical; type: binding; conditions: 10000 nM; read-out: Percent Control
Description: as §1, §2, §3, §4

RAF1 = RAF1 (Homo sapiens, UniProt P04049); test: biochemical; type: binding; conditions: 10000 nM; read-out: Percent Control
Description: (§5) Source data are provided as a Source Data file.

PCTK1 = PCTK1 (Homo sapiens, UniProt Q00536); test: biochemical; type: binding; conditions: 10000 nM; read-out: Percent Control
PCTK1, sequence (Q00536 whole entry): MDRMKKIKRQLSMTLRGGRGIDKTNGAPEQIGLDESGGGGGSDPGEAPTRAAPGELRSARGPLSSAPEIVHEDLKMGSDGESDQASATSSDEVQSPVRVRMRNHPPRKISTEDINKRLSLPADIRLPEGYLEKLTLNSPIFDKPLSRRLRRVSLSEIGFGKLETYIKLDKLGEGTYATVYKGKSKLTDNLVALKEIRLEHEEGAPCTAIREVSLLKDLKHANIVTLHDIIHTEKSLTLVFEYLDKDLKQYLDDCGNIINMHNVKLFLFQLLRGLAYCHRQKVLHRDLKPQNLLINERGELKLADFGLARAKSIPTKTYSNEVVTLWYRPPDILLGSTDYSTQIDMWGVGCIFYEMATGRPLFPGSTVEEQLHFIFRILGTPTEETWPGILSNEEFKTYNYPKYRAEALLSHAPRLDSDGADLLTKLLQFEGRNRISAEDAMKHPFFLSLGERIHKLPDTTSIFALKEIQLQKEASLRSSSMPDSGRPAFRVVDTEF
Description: as §5

PDGFRA = PDGFRA (Homo sapiens, UniProt P16234); test: biochemical; type: binding; conditions: 10000 nM; read-out: Percent Control
Description: as §5

PLK1 = PLK1 (Homo sapiens, UniProt P53350); test: biochemical; type: binding; conditions: 10000 nM; read-out: Percent Control
Description: as §5

KIT(V559D,T670I) = KIT(V559D,T670I) (Homo sapiens, UniProt P10721, T670I/V559D); test: biochemical; type: binding; conditions: 10000 nM; read-out: Percent Control
Description: as §5

KIT = KIT (Homo sapiens, UniProt P10721); test: biochemical; type: binding; conditions: 10000 nM; read-out: Percent Control
Description: as §5

PAK4 = PAK4 (Homo sapiens, UniProt O96013); test: biochemical; type: binding; conditions: 10000 nM; read-out: Percent Control
Description: as §5

PIK3C2B = PIK3C2B (Homo sapiens, UniProt O00750); test: biochemical; type: binding; conditions: 10000 nM; read-out: Percent Control
Description: as §5

PLK3 = PLK3 (Homo sapiens, UniProt Q9H4B4); test: biochemical; type: binding; conditions: 10000 nM; read-out: Percent Control
Description: as §5

RIOK2 = RIOK2 (Homo sapiens, UniProt Q9BVS4); test: biochemical; type: binding; conditions: 10000 nM; read-out: Percent Control
Description: as §5

MKNK1 = MKNK1 (Homo sapiens, UniProt Q9BUB5); test: biochemical; type: binding; conditions: 10000 nM; read-out: Percent Control
Description: as §5

MEK1 = MEK1 (Homo sapiens, UniProt Q02750); test: biochemical; type: binding; conditions: 10000 nM; read-out: Percent Control
Description: as §5

PIM2 = PIM2 (Homo sapiens, UniProt Q9P1W9); test: biochemical; type: binding; conditions: 10000 nM; read-out: Percent Control
PIM2, sequence (Q9P1W9 whole entry): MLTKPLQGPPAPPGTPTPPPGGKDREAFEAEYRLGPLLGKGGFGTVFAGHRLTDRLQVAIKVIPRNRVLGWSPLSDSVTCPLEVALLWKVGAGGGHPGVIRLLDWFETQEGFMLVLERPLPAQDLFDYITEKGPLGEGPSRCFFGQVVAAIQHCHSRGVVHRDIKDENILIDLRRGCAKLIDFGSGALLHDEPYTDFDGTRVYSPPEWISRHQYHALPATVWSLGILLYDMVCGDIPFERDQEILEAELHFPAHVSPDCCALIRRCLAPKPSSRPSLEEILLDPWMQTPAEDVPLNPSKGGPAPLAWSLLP
Description: as §5

KIT(D816V) = KIT(D816V) (Homo sapiens, UniProt P10721, D816V); test: biochemical; type: binding; conditions: 10000 nM; read-out: Percent Control
Description: as §5

MAPKAPK2 = MAPKAPK2 (Homo sapiens, UniProt P49137); test: biochemical; type: binding; conditions: 10000 nM; read-out: Percent Control
Description: as §5

PIM3 = PIM3 (Homo sapiens, UniProt Q86V86); test: biochemical; type: binding; conditions: 10000 nM; read-out: Percent Control
Description: as §5

MAP3K4 = MAP3K4 (Homo sapiens, UniProt Q9Y6R4); test: biochemical; type: binding; conditions: 10000 nM; read-out: Percent Control
Description: as §5

MKNK2 = MKNK2 (Homo sapiens, UniProt Q9HBH9); test: biochemical; type: binding; conditions: 10000 nM; read-out: Percent Control
Description: as §5

PLK4 = PLK4 (Homo sapiens, UniProt O00444); test: biochemical; type: binding; conditions: 10000 nM; read-out: Percent Control
PLK4, sequence (O00444 whole entry): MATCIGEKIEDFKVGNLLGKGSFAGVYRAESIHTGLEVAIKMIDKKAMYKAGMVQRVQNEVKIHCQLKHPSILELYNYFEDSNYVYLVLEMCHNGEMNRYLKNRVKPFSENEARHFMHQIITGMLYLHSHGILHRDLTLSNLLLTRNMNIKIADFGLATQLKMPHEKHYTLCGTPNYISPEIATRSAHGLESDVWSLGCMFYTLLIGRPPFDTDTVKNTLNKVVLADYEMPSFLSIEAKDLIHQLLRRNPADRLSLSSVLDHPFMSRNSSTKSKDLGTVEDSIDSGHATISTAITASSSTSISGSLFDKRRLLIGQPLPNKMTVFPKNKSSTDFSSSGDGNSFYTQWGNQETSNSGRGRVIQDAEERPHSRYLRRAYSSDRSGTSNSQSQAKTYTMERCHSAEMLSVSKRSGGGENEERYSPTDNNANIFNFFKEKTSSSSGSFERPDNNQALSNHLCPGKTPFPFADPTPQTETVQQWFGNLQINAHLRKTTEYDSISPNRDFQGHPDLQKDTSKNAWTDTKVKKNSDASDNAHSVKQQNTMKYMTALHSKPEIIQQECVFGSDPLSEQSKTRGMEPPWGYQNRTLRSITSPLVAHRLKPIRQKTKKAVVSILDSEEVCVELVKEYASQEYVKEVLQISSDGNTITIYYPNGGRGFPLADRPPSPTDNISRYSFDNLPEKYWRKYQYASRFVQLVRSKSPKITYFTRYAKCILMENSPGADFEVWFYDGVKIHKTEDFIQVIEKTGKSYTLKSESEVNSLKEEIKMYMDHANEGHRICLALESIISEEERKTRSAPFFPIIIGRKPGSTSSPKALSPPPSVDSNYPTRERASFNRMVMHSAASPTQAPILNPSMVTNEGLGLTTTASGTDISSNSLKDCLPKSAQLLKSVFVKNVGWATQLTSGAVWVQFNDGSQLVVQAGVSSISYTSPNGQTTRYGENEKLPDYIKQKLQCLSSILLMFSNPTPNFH
Description: as §5

PDGFRB = PDGFRB (Homo sapiens, UniProt P09619); test: biochemical; type: binding; conditions: 10000 nM; read-out: Percent Control
Description: as §5

PAK1 = PAK1 (Homo sapiens, UniProt Q13153); test: biochemical; type: binding; conditions: 10000 nM; read-out: Percent Control
Description: as §5

VEGFR2 = VEGFR2 (Homo sapiens, UniProt P35968); test: biochemical; type: binding; conditions: 10000 nM; read-out: Percent Control
Description: as §5

MLK1 = MLK1 (Homo sapiens, UniProt P80192); test: biochemical; type: binding; conditions: 10000 nM; read-out: Percent Control
Description: as §5

MARK3 = MARK3 (Homo sapiens, UniProt P27448); test: biochemical; type: binding; conditions: 10000 nM; read-out: Percent Control
Description: as §5

p38-beta = p38-beta (Homo sapiens, UniProt Q15759); test: biochemical; type: binding; conditions: 10000 nM; read-out: Percent Control
Description: as §5

LKB1 = LKB1 (Homo sapiens, UniProt Q15831); test: biochemical; type: binding; conditions: 10000 nM; read-out: Percent Control
Description: as §5

IGF1R = IGF1R (Homo sapiens, UniProt P08069); test: biochemical; type: binding; conditions: 10000 nM; read-out: Percent Control
Description: as §5

PPARγ = target: T1, PPARγ (Homo sapiens, UniProt P37231); test: PPARγ agonist/antagonist assay (Eurofins item G124); type: biochemical
T1 construct: purchased Eurofins item G124
T1 sequence (P37231 whole entry, species assumed): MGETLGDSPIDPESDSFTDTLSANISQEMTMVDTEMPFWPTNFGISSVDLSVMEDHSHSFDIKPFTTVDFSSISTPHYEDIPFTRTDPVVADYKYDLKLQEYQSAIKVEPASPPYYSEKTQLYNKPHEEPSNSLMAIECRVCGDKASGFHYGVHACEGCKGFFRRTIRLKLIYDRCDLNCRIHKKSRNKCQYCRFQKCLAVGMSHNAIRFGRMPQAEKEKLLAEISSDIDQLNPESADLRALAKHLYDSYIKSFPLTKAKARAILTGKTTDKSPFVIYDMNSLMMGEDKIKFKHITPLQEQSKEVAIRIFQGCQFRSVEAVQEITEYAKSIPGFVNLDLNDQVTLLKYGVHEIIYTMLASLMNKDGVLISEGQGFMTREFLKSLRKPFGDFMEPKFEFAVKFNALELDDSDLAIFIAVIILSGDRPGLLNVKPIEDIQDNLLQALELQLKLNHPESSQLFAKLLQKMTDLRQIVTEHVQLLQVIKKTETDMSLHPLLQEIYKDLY
Description: as §1, §2, §3, §4

COX-2 = target: T2, COX-2 (Homo sapiens, UniProt P35354); test: COX-2 inhibition (Eurofins item 4186); type: biochemical
T2 construct: purchased Eurofins item 4186
T2 sequence (P35354 18-604): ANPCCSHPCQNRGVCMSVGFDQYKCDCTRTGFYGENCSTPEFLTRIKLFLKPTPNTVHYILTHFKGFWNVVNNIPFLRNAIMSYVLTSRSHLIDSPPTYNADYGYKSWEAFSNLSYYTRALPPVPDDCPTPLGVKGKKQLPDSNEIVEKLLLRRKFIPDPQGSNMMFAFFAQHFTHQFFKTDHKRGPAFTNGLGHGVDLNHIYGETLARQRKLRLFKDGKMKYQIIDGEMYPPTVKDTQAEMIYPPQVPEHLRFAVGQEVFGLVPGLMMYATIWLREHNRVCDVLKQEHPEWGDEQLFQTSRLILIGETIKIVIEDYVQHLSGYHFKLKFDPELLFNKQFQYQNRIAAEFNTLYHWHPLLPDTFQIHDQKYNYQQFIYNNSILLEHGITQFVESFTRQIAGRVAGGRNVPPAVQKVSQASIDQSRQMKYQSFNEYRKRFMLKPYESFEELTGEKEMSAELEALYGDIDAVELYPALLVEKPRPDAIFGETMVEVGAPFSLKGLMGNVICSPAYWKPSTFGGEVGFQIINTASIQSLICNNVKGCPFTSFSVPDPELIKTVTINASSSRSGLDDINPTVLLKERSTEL
Description: as §1, §2, §3, §4

CDK7, sequence (P50613 whole entry): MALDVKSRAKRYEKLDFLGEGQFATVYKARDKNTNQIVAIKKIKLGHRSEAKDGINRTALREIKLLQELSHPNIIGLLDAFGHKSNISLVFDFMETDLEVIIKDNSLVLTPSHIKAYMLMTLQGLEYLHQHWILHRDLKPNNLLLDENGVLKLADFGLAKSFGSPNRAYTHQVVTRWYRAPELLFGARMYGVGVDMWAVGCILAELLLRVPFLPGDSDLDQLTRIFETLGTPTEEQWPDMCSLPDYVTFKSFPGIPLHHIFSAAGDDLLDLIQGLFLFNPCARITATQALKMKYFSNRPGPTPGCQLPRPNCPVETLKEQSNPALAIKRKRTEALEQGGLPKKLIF

O=C(O)C1CCC2(CC1)CC(Nc1ncnc3[nH]c4c(F)cccc4c13)C2 (stereo not shown) [Compound 74, OC(=O)C1CCC2(CC(C2)NC=3N=CN=C4NC=5C(F)=CC=CC5C34)CC1]
remaining activity at 10 µM (CDK7): 62% | remaining activity at 10 µM (SRC): 88% | remaining activity at 10 µM (PDPK1): 64% | remaining activity at 10 µM [1]: 57% | remaining activity at 10 µM (BRAF): 86% | remaining activity at 10 µM (IKK-alpha): 42% | remaining activity at 10 µM (SRPK3): 67% | remaining activity at 10 µM (PIM1): 72% | remaining activity at 10 µM (TRKA): 11% | remaining activity at 10 µM (ZAP70): 75% | remaining activity at 10 µM (BTK): 67% | remaining activity at 10 µM (ULK2): 54% | remaining activity at 10 µM (RAF1): 98% | remaining activity at 10 µM (PCTK1): 94% | remaining activity at 10 µM (PDGFRA): 35% | remaining activity at 10 µM (PLK1): 100% | remaining activity at 10 µM (KIT(V559D,T670I)): 56% | remaining activity at 10 µM (KIT): 75% | remaining activity at 10 µM (PAK4): 65% | remaining activity at 10 µM (PIK3C2B): 74% | remaining activity at 10 µM (PLK3): 97% | remaining activity at 10 µM (RIOK2): 54% | remaining activity at 10 µM (MKNK1): 72% | remaining activity at 10 µM (MEK1): 24% | remaining activity at 10 µM (PIM2): 100% | remaining activity at 10 µM (KIT(D816V)): 76% | remaining activity at 10 µM (MAPKAPK2): 98% | remaining activity at 10 µM (PIM3): 53% | remaining activity at 10 µM (MAP3K4): 92% | remaining activity at 10 µM (MKNK2): 62% | remaining activity at 10 µM (PLK4): 34% | remaining activity at 10 µM (PDGFRB): 60% | remaining activity at 10 µM (PAK1): 76% | remaining activity at 10 µM (VEGFR2): 31% | remaining activity at 10 µM (MLK1): 45% | remaining activity at 10 µM (MARK3): 81% | remaining activity at 10 µM (p38-beta): 79% | remaining activity at 10 µM (LKB1): 97% | remaining activity at 10 µM (IGF1R): 100% | agonist or antagonist activity at PPARγ (PPARγ): no agonist or antagonist activity | inhibitory activity against PPARγ (PPARγ; 3 µM): no inhibitory activity | inhibitory / off-target activity at COX-2 (COX-2; 3 µM): no off-target activity; also recorded: no inhibitory activity | %Inhibition of Control Values (COX-2; COX-2, 3 µM, technical replicates): -20.9% and -2.6%
